From ChEMBL document CHEMBL2380196, “New anticancer active and selective phenylene-bisbenzothiazoles: synthesis, antiproliferative evaluation and DNA binding” (Eur J Med Chem, 2013)
Calls of active or inactive are those of the source. The calls are words filed in the database; no cut-off is given here.

Tests used:
[1] = test system: DNA; assay: Binding affinity to calf thymus DNA assessed as change in melting temperature at 0.25 drug/DNA ratio by spectrophotometer analysis; type: nucleic-acid assay; conditions: Bos taurus
[2] = test system: DNA; assay: Binding affinity to calf thymus DNA assessed as hypochromic effect at 20 uM by UV/Vis spectra analysis; type: nucleic-acid assay; conditions: Bos taurus
[3] = test system: SK-BR-3; assay: Induction of apoptosis in human SKBR3 cells at 10 uM after 48 hrs using propidium iodide/Annexin-V staining by flow cytometry relative to control; type: functional
[4] = test system: SK-BR-3; assay: Induction of apoptosis in human SKBR3 cells at 10 uM after 24 hrs using propidium iodide/Annexin-V staining by flow cytometry relative to control; type: functional
[5] = test system: HeLa; assay: Cell cycle arrest in human HeLa cells assessed as accumulation in G2/M phase at 10 uM after 48 hrs using propidium iodide staining by flow cytometry relative to control; type: functional
[6] = test system: HeLa; assay: Cell cycle arrest in human HeLa cells assessed as accumulation in S phase at 10 uM after 48 hrs using propidium iodide staining by flow cytometry relative to control; type: functional
[7] = test system: HeLa; assay: Cell cycle arrest in human HeLa cells assessed as accumulation in G1 phase at 10 uM after 48 hrs using propidium iodide staining by flow cytometry relative to control; type: functional
[8] = test system: HeLa; assay: Cell cycle arrest in human HeLa cells assessed as accumulation in G2/M phase at 5 uM after 48 hrs using propidium iodide staining by flow cytometry relative to control; type: functional
[9] = test system: HeLa; assay: Cell cycle arrest in human HeLa cells assessed as accumulation in G1 phase at 5 uM after 48 hrs using propidium iodide staining by flow cytometry relative to control; type: functional
[10] = test system: HeLa; assay: Cell cycle arrest in human HeLa cells assessed as accumulation in sub-G1 phase at 5 uM after 48 hrs using propidium iodide staining by flow cytometry relative to control; type: functional
[11] = test system: HeLa; assay: Cell cycle arrest in human HeLa cells assessed as accumulation in G2/M phase at 10 uM after 24 hrs using propidium iodide staining by flow cytometry relative to control; type: functional
[12] = test system: HeLa; assay: Cell cycle arrest in human HeLa cells assessed as accumulation in S phase at 10 uM after 24 hrs using propidium iodide staining by flow cytometry relative to control; type: functional
[13] = test system: HeLa; assay: Cell cycle arrest in human HeLa cells assessed as accumulation in G2/M phase at 5 uM after 24 hrs using propidium iodide staining by flow cytometry relative to control; type: functional
[14] = test system: MIA PaCa-2; assay: Cell cycle arrest in human MIAPaCa2 cells assessed as accumulation in G1 phase at 10 uM after 48 hrs using propidium iodide staining by flow cytometry relative to control; type: functional
[15] = test system: MIA PaCa-2; assay: Cell cycle arrest in human MIAPaCa2 cells assessed as accumulation in sub-G1 phase at 10 uM after 48 hrs using propidium iodide staining by flow cytometry relative to control; type: functional
[16] = test system: MIA PaCa-2; assay: Cell cycle arrest in human MIAPaCa2 cells assessed as accumulation in S phase at 5 uM after 48 hrs using propidium iodide staining by flow cytometry relative to control; type: functional
[17] = test system: MIA PaCa-2; assay: Cell cycle arrest in human MIAPaCa2 cells assessed as accumulation in G1 phase at 5 uM after 48 hrs using propidium iodide staining by flow cytometry relative to control; type: functional
[18] = test system: MIA PaCa-2; assay: Cell cycle arrest in human MIAPaCa2 cells assessed as accumulation in G2/M phase at 10 uM after 24 hrs using propidium iodide staining by flow cytometry relative to control; type: functional
[19] = test system: MIA PaCa-2; assay: Cell cycle arrest in human MIAPaCa2 cells assessed as accumulation in G1 phase at 10 uM after 24 hrs using propidium iodide staining by flow cytometry relative to control; type: functional
[20] = test system: MIA PaCa-2; assay: Cell cycle arrest in human MIAPaCa2 cells assessed as accumulation in G2/M phase at 5 uM after 24 hrs using propidium iodide staining by flow cytometry relative to control; type: functional
[21] = test system: MIA PaCa-2; assay: Cell cycle arrest in human MIAPaCa2 cells assessed as accumulation in G1 phase at 5 uM after 24 hrs using propidium iodide staining by flow cytometry relative to control; type: functional
[22] = test system: SK-BR-3; assay: Cell cycle arrest in human SKBR3 cells assessed as accumulation in G2/M phase at 10 uM after 48 hrs using propidium iodide staining by flow cytometry relative to control; type: functional
[23] = test system: SK-BR-3; assay: Cell cycle arrest in human SKBR3 cells assessed as accumulation in G1 phase at 10 uM after 48 hrs using propidium iodide staining by flow cytometry relative to control; type: functional
[24] = test system: SK-BR-3; assay: Cell cycle arrest in human SKBR3 cells assessed as accumulation in sub-G1 phase at 10 uM after 48 hrs using propidium iodide staining by flow cytometry relative to control; type: functional
[25] = test system: SK-BR-3; assay: Cell cycle arrest in human SKBR3 cells assessed as accumulation in G2/M phase at 5 uM after 48 hrs using propidium iodide staining by flow cytometry relative to control; type: functional
[26] = test system: SK-BR-3; assay: Cell cycle arrest in human SKBR3 cells assessed as accumulation in S phase at 5 uM after 48 hrs using propidium iodide staining by flow cytometry relative to control; type: functional
[27] = test system: SK-BR-3; assay: Cell cycle arrest in human SKBR3 cells assessed as accumulation in G1 phase at 5 uM after 48 hrs using propidium iodide staining by flow cytometry relative to control; type: functional
[28] = test system: SK-BR-3; assay: Cell cycle arrest in human SKBR3 cells assessed as accumulation in sub-G1 phase at 5 uM after 48 hrs using propidium iodide staining by flow cytometry relative to control; type: functional
[29] = test system: SK-BR-3; assay: Cell cycle arrest in human SKBR3 cells assessed as accumulation in G2/M phase at 10 uM after 24 hrs using propidium iodide staining by flow cytometry relative to control; type: functional
[30] = test system: SK-BR-3; assay: Cell cycle arrest in human SKBR3 cells assessed as accumulation in S phase at 10 uM after 24 hrs using propidium iodide staining by flow cytometry relative to control; type: functional
[31] = test system: SK-BR-3; assay: Cell cycle arrest in human SKBR3 cells assessed as accumulation in G1 phase at 10 uM after 24 hrs using propidium iodide staining by flow cytometry relative to control; type: functional
[32] = test system: SK-BR-3; assay: Cell cycle arrest in human SKBR3 cells assessed as accumulation in G2/M phase at 5 uM after 24 hrs using propidium iodide staining by flow cytometry relative to control; type: functional
[33] = test system: SK-BR-3; assay: Cell cycle arrest in human SKBR3 cells assessed as accumulation in S phase at 5 uM after 24 hrs using propidium iodide staining by flow cytometry relative to control; type: functional
[34] = test system: SK-BR-3; assay: Cell cycle arrest in human SKBR3 cells assessed as accumulation in G1 phase at 5 uM after 24 hrs using propidium iodide staining by flow cytometry relative to control; type: functional
[35] = test system: SK-BR-3; assay: Cell cycle arrest in human SKBR3 cells assessed as accumulation in sub-G1 phase at 5 uM after 24 hrs using propidium iodide staining by flow cytometry relative to control; type: functional
[36] = test system: HeLa; assay: Antiproliferative activity against human HeLa cells after 72 hrs by MTT assay; type: functional, cell-based; conditions: for CC50: read-out: LC50 (the source's name)
[37] = (§1) Antiproliferative activity against human WI38 cells after 72 hrs by MTT assay; type: cell-based, WI-38; conditions: human, WI-38 cells; read-out: LC50
[38] = test system: WI-38; assay: as §1; type: cell-based; conditions: Homo sapiens, WI-38, 72 h
[39] = test system: MIA PaCa-2; assay: Antiproliferative activity against human MIAPaCa2 cells after 72 hrs by MTT assay; type: functional, cell-based; conditions: MIA PaCa-2, 72 h; for CC50: read-out: LC50 (the source's name)
[40] = test system: SK-BR-3; assay: Antiproliferative activity against human SKBR3 cells after 72 hrs by MTT assay; type: functional, cell-based; conditions: SK-BR-3, 72 h; for CC50: read-out: LC50 (the source's name)

## Cl.Cl.c1cc2nc(-c3ccc(-c4nc5ccc(C6=NCCN6)cc5s4)cc3)sc2cc1C1=NCCN1
[1]
  ΔTm: 3.9 °C
[2]
  Activity: Active
[3]
  Activity: 15%
[4]
  Activity: 5%
[5]
  Activity: 14.5%
[6]
  Activity: 44%
[7]
  Activity: 42.3%
[8]
  Activity: 18.9%
[9]
  Activity: 31.9%
[10]
  Activity: 22.7%
[11]
  Activity: 7.2%
[12]
  Activity: 58.7%
[13]
  Activity: 13.4%
[14]
  Activity: 40.6%
[15]
  Activity: 53.9%
[16]
  Activity: 35.8%
[17]
  Activity: 45.9%
[18]
  Activity: 19%
[19]
  Activity: 40.9%
[20]
  Activity: 5.8%
[21]
  Activity: 35.2%
[22]
  Activity: 20.3%
[23]
  Activity: 41.3%
[24]
  Activity: 32.1%
[25]
  Activity: 13.8%
[26]
  Activity: 32.6%
[27]
  Activity: 53.6%
[28]
  Activity: 27.5%
[29]
  Activity: 14.5%
[30]
  Activity: 39.1%
[31]
  Activity: 50.9%
[32]
  Activity: 11.6%
[33]
  Activity: 33.5%
[34]
  Activity: 58.9%
[35]
  Activity: 15.8%
[36]
  IC50: 7.75 µM
  CC50: 71.1 µM
[37]
  CC50 at 72 h: > 100 µM
[38]
  IC50: > 100 µM
[39]
  IC50: 3.54 µM
  CC50: 36.7 µM
[40]
  IC50: 1.18 µM
  CC50: 8.07 µM

## Cl.Cl.c1cc(-c2nc3ccc(C4=NCCN4)cc3s2)cc(-c2nc3ccc(C4=NCCN4)cc3s2)c1
[1]
  ΔTm: 12.8 °C
[2]
  Activity: Active
[3]
  Activity: 75%
[4]
  Activity: 8%
[5]
  Activity: 13.2%
[6]
  Activity: 71.4%
[7]
  Activity: 20.4%
[8]
  Activity: 17.2%
[9]
  Activity: 47.5%
[10]
  Activity: 13.3%
[11]
  Activity: 2.1%
[12]
  Activity: 66.3%
[13]
  Activity: 24%
[14]
  Activity: 42.8%
[15]
  Activity: 9.1%
[16]
  Activity: 30.8%
[17]
  Activity: 52.1%
[18]
  Activity: 21.3%
[19]
  Activity: 41.6%
[20]
  Activity: 10.9%
[21]
  Activity: 60.2%
[22]
  Activity: 11.1%
[23]
  Activity: 22.1%
[24]
  Activity: 12.5%
[25]
  Activity: 21.1%
[26]
  Activity: 44%
[27]
  Activity: 36.2%
[28]
  Activity: 21.6%
[29]
  Activity: 17.8%
[30]
  Activity: 62.1%
[31]
  Activity: 28.7%
[32]
  Activity: 4.2%
[33]
  Activity: 58.9%
[34]
  Activity: 34.5%
[35]
  Activity: 33.3%
[36]
  IC50: 2.06 µM
  CC50: 7.38 µM
[37]
  CC50 at 72 h: 6.63 µM
[38]
  IC50: 0.15 µM
[39]
  IC50: 0.26 µM
  CC50: 1.49 µM
[40]
  IC50: 0.04 µM
  CC50: 0.87 µM
